# Test results reported in ChEMBL document CHEMBL6103592, “Discovery of novel thiazole-pleuromutilin derivatives with potent antibacterial activity” (Eur J Med Chem, 2025).
# Calls of active or inactive are those of the source. The calls are words filed in the database; no cut-off is given here.
# Columns and labels:
# [1] = system: Staphylococcus aureus; experiment: (§1) Antibacterial efficacy against methicillin-resistant Staphylococcus aureus ATCC 43300 infected in cyclophosphamide-induced neutropenic systemic infection Kunming mouse model assessed as reduction in bacterial load in lung at 20 mg/kg, iv pretreated with cyclophosphamide for 1 hr followed by compound addition and measured after 5 days; type: functional; conditions: time 5 day
# [2] = system: Staphylococcus aureus; experiment: Antibacterial activity against methicillin-resistant Staphylococcus aureus ATCC 43300 assessed as inhibition of visible bacterial growth incubated for 24 hrs by CLSI based broth microdilution method; type: functional
# [3] = system: Enterococcus faecalis; experiment: Antibacterial activity against Enterococcus faecalis assessed as inhibition of visible bacterial growth incubated for 24 hrs by CLSI based broth microdilution method; type: functional
# [4] = system: Streptococcus agalactiae; experiment: Antibacterial activity against Streptococcus agalactiae assessed as inhibition of visible bacterial growth incubated for 24 hrs by CLSI based broth microdilution method; type: functional
# [5] = system: Mycoplasma; experiment: Antibacterial activity against Mycoplasma F3 assessed as inhibition of visible bacterial growth incubated for 24 hrs by CLSI based broth microdilution method; type: functional
# [6] = system: Staphylococcus aureus; experiment: Bactericidal activity against methicillin-resistant Staphylococcus aureus ATCC 43300 at 1 to 6 times MIC incubated upto 24 hrs by time-kill assay; type: functional, organism-based
# [7] = system: Staphylococcus aureus; experiment: Bactericidal activity against methicillin-resistant Staphylococcus aureus ATCC 43300 at 1 times MIC incubated upto 24 hrs by time-kill assay; type: functional, organism-based
# [8] = system: Staphylococcus aureus; experiment: Antibacterial activity against methicillin-resistant Staphylococcus aureus ATCC 43300 assessed as post antibiotic effect at 1 times MIC measured after 1 hr; type: functional
# [9] = system: Staphylococcus aureus; experiment: Drug resistance, ratio of MIC for methicillin-resistant Staphylococcus aureus ATCC 43300 after 21 passages to MIC for methicillin-resistant Staphylococcus aureus ATCC 43300 during first exposure; type: functional
# [10] = system: Staphylococcus aureus; experiment: Antibacterial activity against methicillin resistant Staphylococcus aureus; type: functional
# [11] = system: Staphylococcus aureus; experiment: as §1, with “effect on survival rate” for “reduction in bacterial load in lung”, “7” for “5”; type: functional, organism-based; conditions: time 7.0 day
# [12] = Cytotoxicity against human HEK293T cells assessed as cell viability at 200 micromol/L incubated for 24 hrs by CCK-8 assay relative to control; type: toxicity, cell-based, HEK-293T; conditions: dose 200 µmol/L, read-out: Activity
# [13] = system: HepG2; experiment: Cytotoxicity against human HepG2 cells assessed as cell viability incubated for 24 hrs by CCK-8 assay; type: functional, cell-based; conditions: HepG2, 24 h
# [14] = Acute toxicity in rat assessed as decrease in locomotor activity at 2000 mg/kg, po measured for 14 days; type: organism-based; conditions: in vivo, 336 h, time 14 day
# [15] = Acute toxicity in rat assessed as reduction in food intake at 2000 mg/kg, po measured for 14 days; type: organism-based; conditions: in vivo, 336 h, time 14 day
# [16] = Acute toxicity in rat assessed as reduction in food intake at 2000 mg/kg, po measured at 24 hrs; type: organism-based; conditions: in vivo
# [17] = Acute toxicity in rat assessed as animal death at 2000 mg/kg, po measured for 14 days; type: organism-based; conditions: in vivo, 336 h, time 14 day
# [18] = Acute toxicity in rat assessed as pathological changes in lung at 2000 mg/kg, po measured for 14 days; type: organism-based; conditions: in vivo, 336 h, time 14 day
# [19] = Acute toxicity in rat assessed as swelling in uterus at 2000 mg/kg, po measured for 14 days by H and E staining based analysis; type: organism-based; conditions: in vivo, 336 h, time 14 day
# [20] = Acute toxicity in rat assessed as degeneration of endometrial epithelial cells at 2000 mg/kg, po measured for 14 days by H and E staining based analysis; type: organism-based; conditions: in vivo, 336 h, time 14 day
# [21] = Acute toxicity in rat assessed as degeneration of glandular epithelial cells at 2000 mg/kg, po measured for 14 days by H and E staining based analysis; type: organism-based; conditions: in vivo, 336 h, time 14 day
# [22] = Acute toxicity in rat assessed as necrosis of glandular epithelial cells at 2000 mg/kg, po measured for 14 days by H and E staining based analysis; type: organism-based; conditions: in vivo, 336 h, time 14 day
# [23] = Acute toxicity in po dosed rat assessed as lethal dose measured for 14 days […]; type: organism-based; conditions: in vivo, time 14 day
# [24] = Acute toxicity in rat assessed as absolute heart weight at 2000 mg/kg, po measured for 7 days (reference value: 0.77 +/- 0.12 g); type: organism-based; conditions: in vivo, 168 h, time 7 day
# [25] = Acute toxicity in rat assessed as absolute liver weight at 2000 mg/kg, po measured for 7 days (reference value: 8.43 +/- 0.43 g); type: organism-based; conditions: in vivo, 168 h, time 7 day
# [26] = Acute toxicity in rat assessed as absolute spleen weight at 2000 mg/kg, po measured for 7 days (reference value: 0.53 +/- 0.04g); type: organism-based; conditions: in vivo, 168 h, time 7 day
# [27] = Acute toxicity in rat assessed as absolute lung weight at 2000 mg/kg, po measured for 7 days (reference value: 1.12 +/- 0.07g); type: organism-based; conditions: in vivo, 168 h, time 7 day
# [28] = Acute toxicity in rat assessed as absolute kidney weight at 2000 mg/kg, po measured for 7 days (reference value: 1.60 +/- 0.16 g); type: organism-based; conditions: in vivo, 168 h, time 7 day
# [29] = Acute toxicity in rat assessed as absolute spleen weight at 2000 mg/kg, po administered for 7 days followed by readministration after 7 days and measured at 14 days (reference value: 0.53 +/- 0.04 g); type: organism-based; conditions: in vivo, 336 h, time 14 day
# [30] = Acute toxicity in rat assessed as absolute kidney weight at 2000 mg/kg, po administered for 7 days followed by readministration after 7 days and measured at 14 days (reference value: 1.60 +/- 0.16 g); type: organism-based; conditions: in vivo, 336 h, time 14 day
# [31] = Acute toxicity in rat assessed as relative heart weight at 2000 mg/kg, po measured for 7 days (reference value: 0.40 +/- 0.06%); type: organism-based; conditions: in vivo, 168 h, time 7 day
# [32] = Acute toxicity in rat assessed as relative spleen weight at 2000 mg/kg, po measured for 7 days (reference value: 0.27 +/- 0.02%); type: organism-based; conditions: in vivo, 168 h, time 7 day
# [33] = Acute toxicity in rat assessed as relative lung weight at 2000 mg/kg, po measured for 7 days (reference value: 0.58 +/- 0.03%); type: organism-based; conditions: in vivo, 168 h, time 7 day
# [34] = Acute toxicity in rat assessed as relative kidney weight at 2000 mg/kg, po measured for 7 days (reference value: 0.83 +/- 0.08%); type: organism-based; conditions: in vivo, 168 h, time 7 day
# [35] = Acute toxicity in rat assessed as relative uterus weight at 2000 mg/kg, po measured for 7 days (reference value: 0.27 +/- 0.09%); type: organism-based; conditions: in vivo, 168 h, time 7 day
# [36] = Acute toxicity in rat assessed as relative heart weight at 2000 mg/kg, po administered for 7 days followed by readministration after 7 days and measured at 14 days (reference value: 0.40 +/- 0.06 %); type: organism-based; conditions: in vivo, 336 h, time 14 day
# [37] = Acute toxicity in rat assessed as relative liver weight at 2000 mg/kg, po administered for 7 days followed by readministration after 7 days and measured at 14 days (reference value: 4.36 +/- 0.23 %); type: organism-based; conditions: in vivo, 336 h, time 14 day
# [38] = Acute toxicity in rat assessed as relative lung weight at 2000 mg/kg, po administered for 7 days followed by readministration after 7 days and measured at 14 days (reference value: 0.58 +/- 0.03 %); type: organism-based; conditions: in vivo, 336 h, time 14 day
# [39] = Acute toxicity in rat assessed as relative kidney weight at 2000 mg/kg, po administered for 7 days followed by readministration after 7 days and measured at 14 days (reference value: 0.83 +/- 0.08%); type: organism-based; conditions: in vivo, 336 h, time 14 day
# [40] = Acute toxicity in rat assessed as relative uterus weight at 2000 mg/kg, po administered for 7 days followed by readministration after 7 days and measured at 14 days (reference value: 0.27 +/- 0.09%); type: organism-based; conditions: in vivo, 336 h, time 14 day
smiles,measurement,setting,value
C=C[C@]1(C)C[C@@H](OC(=O)CSc2nc(OC(=O)c3ccc(C(C)(C)C)cc3)cs2)[C@]2(C)[C@H](C)CC[C@]3(CCC(=O)[C@H]32)[C@@H](C)[C@@H]1O,Activity,[1],0.9 log10CFU
same,MIC,[2],0.25 µg/mL
same,MIC,[3],> 32 µg/mL
same,MIC,[4],0.063 µg/mL
same,MIC,[5],0.125 µg/mL
same,Activity,[6],Dose-dependent-effect
same,Activity,[7],Active
same,PAE,[8],0.801 h
same,Ratio,[9],16
same,MIC,[10],0.5 µg/mL
same,Activity,[11],Active
same,"viability at 24 h, 200 µM",[12],60%
same,IC50,[13],> 200 µM
same,Activity,[14],Non-toxic
same,Activity,[15],Toxic
same,Activity,[16],Non-toxic
same,Activity,[17],Non-toxic
same,Activity,[18],Non-toxic
same,Activity,[19],Non-toxic
same,Activity,[20],Non-toxic
same,Activity,[21],Non-toxic
same,Activity,[22],Non-toxic
same,LD50 at 336 h,[23],2000 mg/kg
same,Activity,[24],0.75 g
same,Activity,[25],8.5 g
same,Activity,[26],0.53 g
same,Activity,[27],1.13 g
same,Activity,[28],1.54 g
same,Activity,[29],0.53 g
same,Activity,[30],1.63 g
same,Activity,[31],0.39%
same,Activity,[32],0.28%
same,Activity,[33],0.58%
same,Activity,[34],0.8%
same,Activity,[35],0.27%
same,Activity,[36],0.36%
same,Activity,[37],3.97%
same,Activity,[38],0.59%
same,Activity,[39],0.76%
same,Activity,[40],0.23%
